The results in this text go back to patent publication US20250161338A1, “Compounds for Anti-aging Intervention” (AGENCY FOR SCIENCE, TECHNOLOGY AND RESEARCH, priority 2022, published 2025).

Structures can show the parent of a compound that is named as a salt. Residues, ends and D or L forms follow the SMILES beside them.

Experiment [1] has as its system prototrophic yeast strain (CEN.PK113-7D). Put plainly: Propidium iodide fluorescence-based CLS method in yeast (incl. high-throughput screening).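 As to PI intensity: untreated reference is eight DMSO and water control wells per plate.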 Type of experiment: cell-based, Saccharomyces cerevisiae. As to conditions: concentration tested 100 μM; for Yeast CLS increase: Yes/No call of the screen; for PI intensity: solvent DMSO or water, chronological age point Day 7 (72 h growth = Day 1), lower = more survival. In outline:
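CEN.PK113-7D aged in SD medium at 30 °C with compounds (rapamycin 0–10 nM; sugars 0–8 mM; screen at single concentrations). At each age point cells were stained with 5 μg/mL PI for 15 min; fluorescence was normalized to OD600, background-subtracted, and survival scaled against boiled-cell control.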

Experiment [2] shares this test system. Put plainly: Yeast outgrowth in YPD liquid medium (CLS of aged cells). The format is cell-based, Saccharomyces cerevisiae. As to conditions: concentration tested 100 μM; OD600 nm after 24 h in YPD at 30° C.; age point day 14. In outline:
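Cultures aged at 30 °C in SD medium with double-diluted rapamycin (0–10 nM) or sugars/polyols (0–8 mM). On day 14, 3 µL of culture was transferred into 200 µL YPD and outgrowth read as OD600. Survival expressed relative to day 1 outgrowth (100%).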

Take `Cc1cc2nc3c(=O)[nH]c(=O)nc-3n(C[C@H](O)[C@H](O)[C@H](O)COP(=O)(O)OP(=O)(O)OC[C@H]3O[C@@H](n4cnc5c(N)ncnc54)[C@H](O)[C@@H]3O)c2cc1C` [Flavin adenine dinucleotide (disodium salt)]: in experiment [1], the “Yeast CLS increase” value is “No” and the PI intensity is reported as 59,508.7. The compound further came in with an Outgrowth in experiment [2] of 0.2.
In the same order, the values of `NC=O` [Formamide] are “No”, 64,135.2 and 0.1.
In the same order, the values of `O=C1NC(c2ccccc2)(c2ccccc2)C(=O)N1COP(=O)(O)O` [Fosphenytoin (disodium), reference compound] are “No”, 61,860.0 and 0.1.
The like results for `COC(=O)C1=CO[C@@H](O[C@@H]2O[C@H](CO)[C@@H](O)[C@H](O)[C@H]2O)[C@H]2[C@@H]1C=C[C@@]2(O)CO` [Gardenoside] were, in that order, “No”, 65,525.5 and 0.1.
As to `C=C[C@@H]1C2=CCOC(=O)C2=CO[C@H]1O[C@@H]1O[C@H](CO)[C@@H](O)[C@H](O)[C@H]1O` [Gentiopicroside], in experiment [1], the “Yeast CLS increase” value is “No” and the PI intensity was 59,804.7. The compound also yielded an Outgrowth in experiment [2] of 0.1.
As to `CC(C)=CCC/C(C)=C/CO` [Geraniol], in experiment [1], the “Yeast CLS increase” value is on record as “No” and the PI intensity is reported as 76,340.1. In experiment [2], the Outgrowth was found to be 0.1.
In the case of `Cl.N[C@H]1C(O)O[C@H](CO)[C@@H](O)[C@@H]1O` (stereo partly drawn) [Glucosamine (hydrochloride)], in experiment [1], the “Yeast CLS increase” value is given as “No” and the PI intensity is recorded as 65,905.5. In experiment [2], this compound returned an Outgrowth of 0.1.
With `CC(CCC(=O)NCC(=O)O)C1CCC2C3CCC4CC(O)CCC4(C)C3CC(O)C12C` (stereo not drawn) [Glycodeoxycholic acid (monohydrate)], the “Yeast CLS increase” value in experiment [1] is recorded as “No”. Also, in experiment [1] ((monohydrate)), the PI intensity is 73,459.3. This compound also registered an Outgrowth in experiment [2] of 0.1.
`C[C@H](CCC(=O)NCC(=O)O)[C@H]1CC[C@H]2[C@@H]3[C@@H](O)C[C@@H]4C[C@H](O)CC[C@]4(C)[C@H]3CC[C@]12C` [Glycoursodeoxycholic acid]: in experiment [1], the “Yeast CLS increase” value is on record as “No” and the PI intensity was 64,205.2. The compound further registered an Outgrowth in experiment [2] of 0.1.
`Cc1cc2c(C(C)C)c(O)c(O)c(C=O)c2c(O)c1-c1c(C)cc2c(C(C)C)c(O)c(O)c(C=O)c2c1O` [Gossypol]: in experiment [1], the PI intensity is 65,220.1. This compound had an Outgrowth in experiment [2] of 0.1.
As to `Cc1ccc(C(C)C)cc2c(C)ccc1-2` [Guaiazulene], in experiment [1], the “Yeast CLS increase” value is “No” and the PI intensity is reported as 58,776.1. Further, the Outgrowth in experiment [2] amounted to 0.1.
In the same order, the values of `C/C=C1\C(=O)C[C@H]2[C@@H]3CCC4=CC(=O)CC[C@]4(C)[C@H]3CC[C@]12C` [Guggulsterone] are “No”, 63,881.9 and 0.1.
The like results for `C[C@@H]1O[C@@H](O[C@H]2[C@H](O[C@H]3CC[C@@]4(C)[C@@H](CC[C@]5(C)[C@@H]4CC=C4[C@@H]6CC(C)(C)CC[C@]6(C(=O)O[C@@H]6O[C@H](CO[C@@H]7O[C@H](CO)[C@@H](O[C@@H]8O[C@@H](C)[C@H](O)[C@@H](O)[C@H]8O)[C@H](O)[C@H]7O)[C@@H](O)[C@H](O)[C@H]6O)CC[C@]45C)[C@]3(C)CO)OC[C@H](O)[C@@H]2O)[C@H](O)[C@H](O)[C@H]1O` [Hederacoside C] were, in that order, “No”, 73,515.9 and 0.1.
Turning to `CC1(C)CC[C@]2(C(=O)O)CC[C@]3(C)C(=CC[C@@H]4[C@@]5(C)CC[C@H](O)[C@@](C)(CO)[C@@H]5CC[C@]43C)[C@@H]2C1` [Hederagenin], in experiment [1], the “Yeast CLS increase” value is “No” and the PI intensity is listed as 73,281.0. Moreover, the Outgrowth in experiment [2] stood at 0.1.
In the same order, the values of `CC[C@H](C)[C@@H]1NC(=O)[C@@H]2CCCN2C(=O)[C@@H]2CCCN2C(=O)[C@@H]2CCCN2C(=O)[C@H](CC(C)C)NC(=O)CNC(=O)CNC(=O)[C@H](Cc2ccccc2)NC1=O` [Heterophyllin B] (cyclo(FGGLPPPI)) are “No”, 61,587.8 and 0.2.
In the same order, the values of `O=c1cc(O)cc(/C=C/c2ccc(O)c(O)c2)o1` [Hispidin] are “No”, 67,098.8 and 0.1.
The like results for `COc1cc(CC(=O)O)ccc1O` [Homovanillic acid] were, in that order, “No”, 65,033.1 and 0.1.
In the case of `CCCCCCCCCCCCCCCC(=O)NCCO` [Impulsin], in experiment [1], the “Yeast CLS increase” value is “No” and the PI intensity is reported as 71,903.7. The Outgrowth in experiment [2] is listed as 0.1.
The like results for `C=C1C(=O)O[C@@H]2C[C@@]3(C)CCCC(=C)[C@@H]3C[C@H]12` [Isoalantolactone] were, in that order, “No”, 94,566.8 and 0.1.
The like results for `O=C(/C=C/c1ccc(O)c(O)c1)O[C@@H]1C[C@](O)(C(=O)O)C[C@@H](OC(=O)/C=C/c2ccc(O)c(O)c2)[C@H]1O` [Isochlorogenic acid A] were, in that order, “No”, 63,157.7 and 0.1.
The like results for `Nc1nccc(=O)[nH]1` [Isocytosine] were, in that order, “No”, 68,813.6 and 0.1.
`O=C(O)[C@H]1O[C@@H](Oc2c(-c3ccc(O)cc3)oc3cc(O)cc(O)c3c2=O)[C@H](O)[C@@H](O)[C@@H]1O` [Kaempferol 3-O-β-D-glucuronide]: in experiment [1], the “Yeast CLS increase” value is listed as “No” and the PI intensity is given as 62,874.6. For the same compound, the Outgrowth in experiment [2] is recorded as 0.1.
The like results for `Cl.N[C@@H](CS)C(=O)O.O` [L-Cysteine (hydrochloride hydrate)] were, in that order, “No”, 69,216.4 and 0.1.
In the same order, the values of `N[C@@H](CCO)C(=O)O` [L-Homoserine] are “No”, 60,922.1 and 0.1.
On to `Nc1ccccc1C(=O)C[C@H](N)C(=O)O` [L-Kynurenine], for which, in experiment [1], the “Yeast CLS increase” value is recorded as “No” and the PI intensity is 72,824.1. The compound also gave an Outgrowth in experiment [2] of 0.1.
With `Cl.NCCC[C@H](N)C(=O)O` [L-Ornithine (hydrochloride)], in experiment [1], the “Yeast CLS increase” value was “No”. In addition, in experiment [2], the Outgrowth turned out to be 0.1.
Consider `C[Se]CC[C@H](N)C(=O)O` [L-SelenoMethionine], for which, in experiment [1], the “Yeast CLS increase” value is “Yes” and the PI intensity is 31,240.0. Further, in experiment [2], the Outgrowth was found to be 1.2.
For the compound `Br.CCN1C[C@]2(OC(=O)c3ccccc3NC(C)=O)CC[C@H](OC)[C@@]34[C@@H]2C[C@@H]([C@@H]13)[C@@]1(O)C[C@H](OC)[C@H]2C[C@@H]4[C@]1(O)[C@H]2OC` [Lappaconitine (hydrobromide)], in experiment [1], the “Yeast CLS increase” value is listed as “No” and the PI intensity is reported as 76,000.0. The compound also displayed an Outgrowth in experiment [2] of 0.1.
The like results for `CCC[C@@H]1C[C@@H](C(=O)N[C@@H]([C@H]2O[C@H](SC)[C@H](O)[C@@H](O)[C@H]2O)[C@@H](C)O)N(C)C1` [Lincomycin (hydrochloride monohydrate), reference compound] were, in that order, “No”, 67,751.3 and 0.1.
In the same order, the values of `COC(=O)CC(C)=O` [Methyl acetylacetate] are “No”, 64,956.3 and 0.1.
The like results for `C[C@](N)(Cc1ccc(O)cc1)C(=O)O` [Metyrosine, reference compound] were, in that order, “No”, 76,947.2 and 0.1.
Take `CN(C)c1ccc(O)c2c1C[C@H]1C[C@H]3[C@H](N(C)C)C(O)=C(C(N)=O)C(=O)[C@@]3(O)C(O)=C1C2=O` [Minocycline (hydrochloride), reference compound]: the PI intensity in experiment [1] is listed as 71,078.2. Also, the Outgrowth in experiment [2] is 0.1.
Regarding `C/C(=C\C(=O)OCCCCCCCCC(=O)O)C[C@@H]1OC[C@H](C[C@@H]2O[C@H]2[C@@H](C)[C@H](C)O)[C@@H](O)[C@H]1O` [Mupirocin, reference compound], in experiment [1], the “Yeast CLS increase” value was “No” and the PI intensity is 68,477.7. The Outgrowth in experiment [2] came to 0.1.
The like results for `CN(C)c1nc2c(ncn2[C@@H]2O[C@H](CO)[C@@H](O)[C@H]2O)c(=O)[nH]1` [N2,N2-Dimethylguanosine] were, in that order, “No”, 65,619.9 and 0.1.
As to `CC(=O)N[C@@H](Cc1ccc(O)cc1)C(=O)O` [N-Acetyl-L-tyrosine], in experiment [1], the “Yeast CLS increase” value is recorded as “No” and the PI intensity is 57,322.5. The same compound showed an Outgrowth in experiment [2] of 0.1.
The like results for `O=C1N[C@@H]2C(=C[C@H](O)[C@@H](O)[C@H]2O)c2cc3c(c(O)c21)OCO3` [Narciclasine] were, in that order, “No”, 67,161.8 and 0.1.
